# Where a name gives a salt, the structure may show the parent alone.
row,SMILES,melting point [°C]
1,CC(C)(C)c1c[nH]c([C@H](N)Cc2c[nH]c3ccccc23)n1 (as salt: hydrochloride),230 to 232
2,NC1(c2nc(-c3ccccc3)c[nH]2)CCCCC1 (as salt: hydrochloride),202 to 204
3,CC(C)(N)c1nc(-c2ccccc2)c[nH]1 (as salt: hydrochloride),200 to 204
4,N[C@H](Cc1c[nH]c2ccccc12)c1nc(-c2ccccc2)c(-c2ccccc2)[nH]1 (as salt: hydrochloride),> 260
5,"NCc1nc(-c2ccccc2)c[nH]1 (as salt: hydrochloride) [Example 51, (4-phenyl-1H-imidazol-2-yl)methanamine]",228 to 230
6,"CCCCCCN[C@@H](Cc1c[nH]c2ccccc12)c1nc(-c2ccccc2)c[nH]1 (as salt: hydrochloride) [Example 53, N-[(1S)-2-(1H-indol-3-yl)-1-(4-phenyl-1H-imidazol-2-yl)ethyl]-1-hexanamine]",132 to 134
7,"Cn1cc(-c2ccc(-c3ccccc3)cc2)nc1CN (as salt: hydrochloride) [Example 55, (4-[1,1′-biphenyl]-4-yl-1-methyl-1H-imidazol-2-yl)methanamine]",279 to 280
8,"CC(C)C[C@H](N)c1nc(-c2ccccc2)c[nH]1 (as salt: hydrochloride) [Example 56, (1S)-3-methyl-1-(4-phenyl-1H-imidazol-2-yl)-1-butanamine]",150 to 152
9,"N[C@H](c1nc(-c2ccccc2)c[nH]1)C1CCCCC1 (as salt: hydrochloride) [Example 80, (S)-cyclohexyl(4-phenyl-1H-imidazol-2-yl)methylamine]",208 to 210
10,"c1[nH]c([C@@H](NC2CCCCC2)C2CCCCC2)nc1C1CCCCC1 (as salt: hydrochloride) [Example 82, N-[(S)-cyclohexyl(4-cyclohexyl-1H-imidazol-2-yl)methyl]-cyclohexanamine]",180 to 182
11,"c1ccc(-c2c[nH]c([C@@H](NC3CCC3)C3CCCCC3)n2)cc1 (as salt: hydrochloride) [Example 83, N-[(S)-cyclohexyl(4-phenyl-1H-imidazol-2-yl)methyl]-cyclobutanamine]",210 to 212
12,"NCc1nc(-c2ccccc2)cn1Cc1ccccc1 (as salt: hydrochloride) [Example 107, (1-benzyl-4-phenyl-1H-imidazol-2-yl)methanamine]",248 to 250
13,"N[C@H](CCc1ccccc1)c1nc(-c2ccccc2)c[nH]1 (as salt: hydrochloride) [Example 131, (1R)-3-phenyl-1-(4-phenyl-1H-imidazol-2-yl)-1-propanamine]",174 to 176
14,"N[C@H](CC1CCCCC1)c1nc(-c2ccccc2)c[nH]1 (as salt: hydrochloride) [Example 132, (1R)-2-cyclohexyl-1-(4-phenyl-1H-imidazol-2-yl)ethanamine]",196 to 198
15,"NCc1nc(-c2ccc(-c3ccccc3)cc2)c[nH]1 (as salt: hydrochloride) [Example 141, (4-[1,1′-biphenyl]4-yl-1H-imidazol-2-yl)methanamine]",240 to 242
16,"NCc1nc(-c2ccc(-c3ccccc3)cc2)cn1Cc1ccccc1 (as salt: hydrochloride) [Example 143, (1-benzyl-4-[1,1′-biphenyl]-4-yl-1H-imidazol-2-yl)methanamine]",170 to 174
17,"Cn1cc(-c2ccccc2)nc1[C@H](N)Cc1c[nH]c2ccccc12 (as salt: hydrochloride) [Example 151, (1R)-2-(1H-indol-3-yl)-1-(1-methyl-4-phenyl-1H-imidazol-2-yl)ethanamine]",206 to 210
18,N[C@H](CC1CCCCC1)c1nc(-c2ccc(-c3ccccc3)cc2)c[nH]1 (as salt: hydrochloride) [Example 154],178 to 180
19,"CNCc1nc(-c2ccc(-c3ccccc3)cc2)c[nH]1 (as salt: hydrochloride) [Example 155, (4-[1,1′-biphenyl]-4-yl-1H-imidazol-2-yl)-N-methylmethanamine]",218 to 220
20,"CNCc1nc(-c2ccccc2)c(C)[nH]1 (as salt: hydrochloride) [Example 158, N-methyl-(5-methyl-4-phenyl-1H-imidazol-2-yl)methanamine]",218 to 220
21,"NCc1nc(-c2ccccc2)c(-c2ccccc2)[nH]1 (as salt: hydrochloride) [Example 160, (4,5-diphenyl-1H-imidazol-2-yl)methanamine]",210 to 212

row,SMILES,melting point [°C]
1,"NCCc1nc(-c2ccc(-c3ccccc3)cc2)c[nH]1 (as salt: hydrochloride) [Example 161, 2-(4-[1,1′-biphenyl]4-yl-1H-imidazol-2-yl)ethanamine]",228 to 230
2,"CNCc1nc(-c2ccccc2)c(-c2ccccc2)[nH]1 (as salt: hydrochloride) [Example 162, (4,5-diphenyl-1H-imidazol-2-yl)-N-methylmethanamine]",198 to 200
3,"N[C@H](CCc1ccccc1)c1nc(-c2ccc(-c3ccccc3)cc2)c[nH]1 (as salt: hydrochloride) [Example 166, (1R)-1-(4-[1,1′-biphenyl]-4-yl-1H-imidazol-2-yl)-3-phenyl-1-propanamine]",215 to 218
4,"c1ccc(CNCc2nc(-c3ccc(-c4ccccc4)cc3)c[nH]2)cc1 (as salt: hydrochloride) [Example 168, N-benzyl(4-[1,1′-biphenyl]4-yl-1H-imidazol-2-yl)methanamine]",> 250
5,"NCCCc1nc(-c2ccc(-c3ccccc3)cc2)c[nH]1 (as salt: hydrochloride) [Example 179, 3-(4-[1,1′-biphenyl]-4-yl-1H-imidazol-2-yl)-1-propanamine]",> 260
6,"NCCCCCCc1nc(-c2ccccc2)c[nH]1 (as salt: hydrochloride) [Example 180, 6-(4-phenyl-1H-imidazol-2-yl)hexylamine]",244 to 246
7,"CC[C@H](N)c1nc(-c2ccc(-c3ccccc3)cc2)c[nH]1 (as salt: hydrochloride) [Example 196, (1S)-1-(4-[1,1′-biphenyl]-4-yl-1H-imidazol-2-yl)-1-propanamine]",> 250
8,"CC[C@H](N)c1nc(-c2ccccc2)c(-c2ccccc2)[nH]1 (as salt: hydrochloride) [Example 199, (1S)-1-(4,5-diphenyl-1H-imidazol-2-yl)-1-propanamine]",224 to 226
9,"CCC[C@@H](N)c1nc(-c2ccc(-c3ccccc3)cc2)c[nH]1 (as salt: hydrochloride) [Example 209, (1R)-1-(4-[1,1′-biphenyl]-4-yl-1H-imidazol-2-yl)-1-butanamine]",155.4
10,"CCC[C@@H](N)c1nc(-c2ccccc2)c[nH]1 (as salt: hydrochloride) [Example 211, (1R)-1-(4-phenyl-1H-imidazol-2-yl)-1-butanamine]",182 to 184
11,"C[C@@H](N)c1nc(-c2ccccc2)c[nH]1 (as salt: hydrochloride) [Example 219, (1R)-1-(4-phenyl-1H-imidazol-2-yl)ethanamine]",178 to 181
12,"N[C@H](c1nc(-c2ccc(F)c(F)c2)c[nH]1)C1CCCCC1 (as salt: hydrochloride) [Example 258, (S)-cyclohexyl[4-(3,4-difluorophenyl)-1H-imidazol-2-yl]-methanamine]",222 to 223
13,"COc1ccc(-c2c[nH]c([C@@H](N)C3CCCCC3)n2)cc1F (as salt: hydrochloride) [Example 259, (S)-cyclohexyl[4-(3-fluoro-4-methoxyphenyl)-1H-imidazol-2-yl]-methanamine]",225 to 227
14,"Fc1ccc(-c2c[nH]c([C@@H](NC3CCCCC3)C3CCCCC3)n2)cc1 (as salt: hydrochloride) [Example 264, N-{(S)-cyclohexyl[4-(4-fluorophenyl)-1H-imidazol-2-yl]methyl}cyclohexanamine]",> 250
15,"c1ccc(-c2c[nH]c([C@@H](NCC3CCCCC3)C3CCCCC3)n2)cc1 (as salt: hydrochloride) [Example 265, (S)-cyclohexyl-N-(cyclohexylmethyl)(4-phenyl-1H-imidazol-2-yl)methanamine]",180 to 182
16,"c1ccc(-c2c[nH]c([C@@H](NCC3CC3)C3CCCCC3)n2)cc1 (as salt: hydrochloride) [Example 267, (S)-cyclohexyl-N-(cyclopropylmethyl)(4-phenyl-1H-imidazol-2-yl)methanamine]",151 to 152
17,"Fc1ccc(-c2c[nH]c([C@@H](NCC3CC3)C3CCCCC3)n2)cc1 (as salt: hydrochloride) [Example 273, (S)-cyclohexyl-N-(cyclopropylmethyl)[4-(4-fluorophenyl)-1H-imidazol-2-yl]-methanamine]",221.4
18,"c1cc(C2CCCCC2)ccc1-c1c[nH]c([C@@H](NC2CCC2)C2CCCCC2)n1 (as salt: hydrochloride) [Example 275, N-{(S)-cyclohexyl[4-(4-cyclohexylphenyl)-1H-imidazol-2-yl]methyl}cyclobutanamine]",190 to 192
19,"Cn1cc(-c2ccc(F)cc2)nc1[C@@H](NC1CCCCC1)C1CCCCC1 (as salt: hydrochloride) [Example 279, N-{(S)-cyclohexyl[4-(4-fluorophenyl)-1-methyl-1H-imidazol-2-yl]methyl}cyclohexanamine]",190 to 194
20,"CCN(CC)c1ccc(-c2c[nH]c([C@@H](NCC3CCCCC3)C3CCCCC3)n2)cc1 (as salt: hydrochloride) [Example 290, 4-(2-{(S)-cyclohexyl[(cyclohexylmethyl)amino]methyl}-1H-imidazol-4-yl)-N,N-diethylaniline]",204 to 206
21,"CC(C)(C)c1cc(-c2c[nH]c([C@@H](NCC3CCCCC3)C3CCCCC3)n2)cc(C(C)(C)C)c1O (as salt: hydrochloride) [Example 291, 2,6-ditert-butyl-4-(2-{(S)-cyclohexyl[(cyclohexylmethyl)amino]-methyl}-1H-imidazol-4-yl)phenol]",254.6

# From patent US7291641B2, “Derivatives of heterocycles with 5 members, their preparation and their use as medicaments” (Societe de Conseils de Recherches et d'Applications …, priority 1999, dated 2007)
